# Settings: male, human, in vivo, 9 days
# Text: A total of 36 healthy males subjects enrolled and were divided into three groups of 12. Within each group participants were randomized to one of two treatment sequences with six subjects receiving each sequence.
# The safety endpoints were blood pressure, heart rate, ECG, clinical laboratory data (haematology and biochemistry), urinalysis, AEs and concomitant medications, recorded at each visit.
structure (smiles),measurement,value
"CO[C@H]1/C=C/O[C@@]2(C)Oc3c(C)c(O)c4c(O)c(c(/C=N/N5CCN(C)CC5)c(O)c4c3C2=O)NC(=O)/C(C)=C\C=C\[C@H](C)[C@H](O)[C@@H](C)[C@@H](O)[C@@H](C)[C@H](OC(C)=O)[C@@H]1C [Rifampicin, rifampicin]",Dysgeusia (TEAE),1 (8) No. of subjects (%)
same,Headache (TEAE),0 No. of subjects (%)
same,Somnolence (TEAE),0 No. of subjects (%)

# Source: paper PMC3671111, “A Phase I, open-label, randomized, crossover study in three parallel groups to evaluate the effect of Rifampicin, Ketoconazole, and Omeprazole on the pharmacokinetics of THC/CBD oromucosal spray in healthy volunteers” (SpringerPlus, 2013)
